From patent US20240197661A1, “ORAL DOSAGE FORMS OF METHYL HYDROGEN FUMARATE AND PRODRUGS THEREOF” (Arbor Pharmaceuticals, LLC, priority 2012, published 2024) come the findings set out here.

For one series, the system named is healthy adult subjects. The series is described as follows: safety and tolerability in single-dose food effect study. The series is classed as in vivo, human. The conditions noted are these: single 100 mg dose, fed and fasted. An excerpt: Twelve healthy adult volunteers (males and females) participated in the study. All twelve subjects received […] a dosage form of Example 3, once in a fed condition and once in a fasted condition, with a two-week washout between treatments. The fasted dosing was achieved by dosing the subject following an overnight fast while the fed dosing was achieved by dosing the subject after consuming a high fat-content breakfast.
All 12 subjects completed the dosing period. All adverse events were mild.

The subject of series [1] is subjects with moderate-to-severe plaque psoriasis. The series is described as follows: 24-week placebo-controlled efficacy study in plaque psoriasis. The conditions noted are these: for patients achieving PASI-75 / patients achieving an IGA score of 0 or 1: week 24. Type of series: in vivo, human. How it is done:
(§1) Study subjects were enrolled at 76 US sites. Patients had chronic plaque psoriasis for more than 6 months, PASI (Psoriasis Area and Severity Index) scores ≥12, IGA (Investigator's Global Assessment) Scores ≥3, and psoriasis BSA (Body Surface Area) ≥10%. Altogether 426 subjects were randomized in a 1:1:1:1 ratio into 4 dose arms: 400 mg QD, 400 mg BID, 600 mg BID, and placebo. A 5-week titration phase was followed by 19 weeks of treatment. The co-primary end points at week 24 were the percentages of patients achieving an at least 75% reduction of their baseline PASI (“PASI-75”) and an IGA score of ‘clear’ or ‘almost clear’ (i.e., 0 or 1).

Series [2] has the same test system. The series is described as follows: safety (adverse events) in 24-week plaque psoriasis study. Type of series: in vivo, human. How it is done: as §1
The nature of series [3]: degradation of MHF prodrugs in pH 6.0 phosphate buffer with sodium acetate.
Procedure: Each prodrug was placed in a pH 6.0 phosphate buffer with multiple concentrations of sodium acetate (0.0 M, 0.1 M, 0.5 M, 2.0 M, 3.0 M, and 4.0 M) at 40° C. The presence of prodrug was measured over time up to 42 hours. The rate of prodrug degradation can be expressed according to the following formula: In (A)=In (A0)−Kobs●t, wherein A is the prodrug concentration, A0 is the prodrug concentration at time zero and Kobs is the observed slope of the curve plotting In (A) versus time (t). Thus, the higher the Kobs, the more quickly the prodrug is degrading.

As for `CCN(CC)C(=O)COC(=O)/C=C/C(=O)OC` [PPC-06, (N,N-Diethylcarbamoyl)methyl methyl (2E)but-2-ene-1,4-dioate], in the series with healthy adult subjects, the “severity of adverse events” value is “mild”. Besides, the “tolerability during the trial” value in the series with healthy adult subjects was “well tolerated”. The “patients achieving PASI-75” value in series [1] (400 mg BID, p=0.002 vs placebo) is on record as 47.2%; in series [1] (400 mg QD, p=0.004 vs placebo) it was 39.7%; in series [1] (600 mg BID, p=0.004 vs placebo) it was 44.3%. Further, the “patients achieving an IGA score of 0 or 1” value was determined as 41.4% in series [1] (400 mg BID, p=0.021 vs placebo); 35.7% in series [1] (400 mg QD, p=0.044 vs placebo); 44.4% in series [1] (600 mg BID, p=0.010 vs placebo). Further, the “efficacy compared to placebo” value in series [1] (24 weeks of treatment, three dose strengths) is listed as “significant efficacy compared to placebo”. In addition, the figures for the “patients reporting diarrhea (TEAE)” value in series [2] (400 mg BID), in series [2] (400 mg QD) and in series [2] (600 mg BID) were 18%, 7% and 23%, respectively. In addition, in series [2] (PPC-06 treatment arms), the flushing reported is 1-2%. The “subjects developing CTCAE grade 3 lymphopenia” value in series [2] (during treatment, recovered on discontinuation) is on record as “Two”. Besides, the “new or unexpected adverse events compared to DMF drugs” value in series [2] (in vivo) is listed as “No new or unexpected adverse events”. Besides, the “severity of most cases of diarrhea” value in series [2] (in vivo) is “mild to moderate”. For the same compound, the “nausea and abdominal pain reported” value in series [2] (overall PPC-06 population) was “less than 10%”. Besides, the “formation rates of both primary degradation products” value in series [3] (14.6 hour exposure, pH 6.0, 40° C., varying acetate concentration) is listed as “increased with increasing acetate concentration”. For the same compound, in series [3] (pH 6.0, 40° C.), the “effect of acetate on degradation rate compared to DMF” value is “more pronounced”. Also, the “degradation rate (Kobs) as a function of acetate concentration” value in series [3] (pH 6.0 phosphate buffer, sodium acetate 0.0-4.0 M, 40° C., up to 42 hours) was “increased with increasing concentrations of acetate”.
